This test relates to 233499-124-R-J3-PDC spheroids with HUVEC/MSC, viability. The test can be described thus: Anticancer human tumor 233499-124-R-J3-PDC patient-derived colon adenocarcinoma cell line growth inhibition [PI3K]. The conditions noted are these: for viability, T/C: stronger effect = lower value. The text has this:
Combinatorial screen of targeted agents with the PI3K inhibitors inavolisib, alpelisib, duvelisib, and copanlisib in multi-cell type tumor spheroids
A high-throughput screen of multi-cell type tumor spheroids was designed to identify active combinations of targeted small molecules and PI3K pathway inhibitors. Complex spheroids include a stromal component modeled by human endothelial cells (HUVEC) and fibroblasts modeled by human mesenchymal stem cells (MSCs). The concentration ranges selected for each drug and investigational agent were based upon clinically achievable concentrations if the clinical Cmax of the agent was known.
Compounds. The drugs and investigational agents: inavolisib (NSC800729), alpelisib (NSC765974), duvelisib (NSC772469), copanlisib (NSC816437), ipatasertib (NSC767898), afuresertib (NSC778305), talazoparib (NSC767125), sapanisertib (NSC764658), selumetinib (NSC741078), tovorafenib (DAY101, NSC766906), vemurafenib (NSC761431), ravoxertinib (NSC781343), sotorasib (NSC818433), MRTX1133 (NSC 836407), abemaciclib (NSC 768073), palbociclib (NSC758247), venetoclax (NSC 766270), SY5609 (NSC837396), enzalutamide (NSC755605), and darolutamide (NSC825331), were obtained from the National Cancer Institute (NCI) Developmental Therapeutics Program Chemical Repository. The FDA-approved anticancer drug set is available from the NCI Developmental Therapeutics Program. […] The stock solutions were prepared in dimethyl sulfoxide (DMSO, Sigma-Aldrich, St. Louis, MO, cat. D2650) at 800-fold the tested concentration and stored at -70 degrees C prior to their use. All drugs and investigational agents were tested over a range starting from a high concentration at or near the clinical Cmax and decreasing in half-log increments. If the clinical Cmax for an agent had not been determined, the highest concentration tested was 10 microM.
Cell Culture. All cells were maintained in an incubator at 37 degrees C and 5% CO2 with 95% humidity. The PDC lines were cultured according to standard operating procedures established by the NCI PDMR (https://pdmr.cancer.gov/sops/default.htm). All PDCs were thawed and cultured in Matrigel-coated flasks prepared with a working solution of 1X Ham's F-12 nutrient mix, without supplementation (Invitrogen, Waltham, MA, cat. 11765054), 100 U/mL penicillin-streptomycin (Invitrogen, cat. 15140122), and 2.5% Matrigel (Corning Inc., Corning, NY, cat. 354248) for the first three passages. The 354836-022-R-J1-PDC, 475296-252-R-J1-PDC, and 997726-040-R-J2-PDC lines were cultured in 6A media, which includes advanced DMEM/F-12 (Thermo Fisher Scientific, cat. 12634028), 10 mM HEPES (Thermo Fisher Scientific, cat. 15630080), 1X GlutaMAX supplement (Thermo Fisher Scientific, cat. 35050061), 0.1 mg/mL primocin (InvivoGen, San Diego, CA, cat. ant-pm-2), 10% defined fetal bovine serum, heat inactivated (HyClone Laboratories Inc., Logan, UT, cat. SH30070.03HI), 50% L-WRN conditioned media (ATCC, cat. CRL-3276), 1.25 mM N-Acetyl-L-cysteine (Sigma-Aldrich, cat. A9165), 10 mM nicotinamide (Sigma-Aldrich, cat. N0636), 1X B-27 supplement (Thermo Fisher Scientific, cat. 17504044), 1X N-2 supplement (Thermo Fisher Scientific, cat. 17502048), and 10 microM Y-27632 dihydrochloride (Tocris Bioscience, Bristol, United Kingdom, cat. 1254). The 624824-186-R-J2-PDC line was cultured in 6C/Colon 1B media, which includes all 6A media components plus 50 ng/mL human EGF recombinant protein (Thermo Fisher Scientific, cat. PHG0311). […]

The values below come from PubChem BioAssay AID1963984 (Molecular Pharmacology Branch, DTP, NCI, 2024).

By viability, T/C is commonly meant the result in the treated group divided by that in the control group, in per cent. What is called IC50 is the concentration that inhibits the measured activity by half.
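Further: spheroids exposed to agents for seven days before readout.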
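Wherever viability, T/C is given: percent viability relative to DMSO vehicle control taken as 100%.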

Take `CC(Cn1ccc(-c2ccc(C#N)c(Cl)c2)n1)NC(=O)c1cc(C(C)O)[nH]n1` (centres undefined): the viability, T/C is, setting by setting: (compound 0.316 µM) 97.2% [middle of 4 runs]; (compound 1 µM) 98.2% [middle of 4 runs]; (compound 3.16 µM) 92.5% [middle of 4 runs]. Moreover, under “curve of compound”, the IC50 is above 10000 nM.

Consider `C[C@@H](NC(=O)c1ncnc(N)c1Cl)c1ncc(C(=O)Nc2cc(C(F)(F)F)c(Cl)cn2)s1`, for which the viability, T/C is 110% [middle of 4 runs] (compound 3.16 µM) and 110% [middle of 4 runs] (compound 10 µM). Also, where the note is “curve of compound”, the IC50 was above 10000 nM.

Take `Cn1cnc2c(F)c(Nc3ccc(Br)cc3Cl)c(C(=O)NOCCO)cc21` + CC(Nc1ccc2c(c1)OCCn1cc(N3C(=O)OCC3C(F)F)nc1-2)C(N)=O: the IC50 by setting is: (curve of first compound, second compound 0.00316 µM) 479 nM; (curve of first compound, second compound 0.01 µM) 541 nM; (curve of first compound, second compound 0.0316 µM) 262 nM; (curve of first compound, second compound 0.1 µM) 200 nM; (curve of first compound, second compound 0.316 µM) 134 nM; (curve of first compound, second compound 1 µM) 17.1 nM. Further, the viability, T/C (second compound 0.00316 µM, first compound 0.00949 µM) is 85%; the viability, T/C (second compound 0.00316 µM, first compound 0.03 µM) was 80%; the viability, T/C (second compound 0.00316 µM, first compound 0.0949 µM) was 75.1%; the viability, T/C (second compound 0.00316 µM, first compound 0.3 µM) is 57%; the viability, T/C (second compound 0.00316 µM, first compound 0.949 µM) is 38.4%; the viability, T/C (second compound 0.00316 µM, first compound 3 µM) was 18.7%. In addition, the viability, T/C by setting is: (second compound 0.01 µM, first compound 0.00949 µM) 79.7%; (second compound 0.01 µM, first compound 0.03 µM) 85.1%; (second compound 0.01 µM, first compound 0.0949 µM) 80.3%; (second compound 0.01 µM, first compound 0.3 µM) 64.1%; (second compound 0.01 µM, first compound 0.949 µM) 36.4%; (second compound 0.01 µM, first compound 3 µM) 21.9%. The viability, T/C reads like this: (second compound 0.0316 µM, first compound 0.00949 µM) 80.4%; (second compound 0.0316 µM, first compound 0.03 µM) 90.6%; (second compound 0.0316 µM, first compound 0.0949 µM) 78.7%; (second compound 0.0316 µM, first compound 0.3 µM) 45.7%; (second compound 0.0316 µM, first compound 0.949 µM) 30.2%; (second compound 0.0316 µM, first compound 3 µM) 23.8%. Moreover, the viability, T/C (second compound 0.1 µM, first compound 0.00949 µM) was 77.6%; the viability, T/C (second compound 0.1 µM, first compound 0.03 µM) is 60.8%; the viability, T/C (second compound 0.1 µM, first compound 0.0949 µM) was 62.1%; the viability, T/C (second compound 0.1 µM, first compound 0.3 µM) is 47.4%; the viability, T/C (second compound 0.1 µM, first compound 0.949 µM) was 22.9%; the viability, T/C (second compound 0.1 µM, first compound 3 µM) is 16.8%. In addition, the viability, T/C (second compound 0.316 µM, first compound 0.00949 µM) was 70.2%; the viability, T/C (second compound 0.316 µM, first compound 0.03 µM) was 82.6%; the viability, T/C (second compound 0.316 µM, first compound 0.0949 µM) is 53.6%; the viability, T/C (second compound 0.316 µM, first compound 0.3 µM) is 37.1%; the viability, T/C (second compound 0.316 µM, first compound 0.949 µM) was 29.2%; the viability, T/C (second compound 0.316 µM, first compound 3 µM) was 24.2%. Moreover, the viability, T/C (second compound 1 µM, first compound 0.00949 µM) was 57%; the viability, T/C (second compound 1 µM, first compound 0.03 µM) was 42%; the viability, T/C (second compound 1 µM, first compound 0.0949 µM) was 38.2%; the viability, T/C (second compound 1 µM, first compound 0.3 µM) was 19.8%; the viability, T/C (second compound 1 µM, first compound 0.949 µM) was 28.7%; the viability, T/C (second compound 1 µM, first compound 3 µM) was 12.7%.
